Legend:
Assay in all cases: relative viability (nuclei count vs DMSO), 5 days (fraction); higher = more cells survive
[1] = compound: C[C@]1(c2nc3c(C(N)=O)cccc3[nH]2)CCCN1 [Veliparib] + CC(C)C[C@H](NC(=O)[C@H](Cc1ccccc1)NC(=O)c1cnccn1)B(O)O [Bortezomib] (partner 0.002 µM)
Method in brief: (§1)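 Lung cancer cell lines in 1536-well plates were dosed by pin tool the day after seeding, either with one drug alone or with a fixed anchor-drug dose plus five library-drug doses (not always all listed) in √10 steps. After 5 days, cells were fixed and their nuclei stained in one step (final 0.05% Triton X-100, 1% formaldehyde, 1 ug/ml Hoechst), then counted on 4× images. Relative viability is the nuclei count in treated wells divided by that in vehicle wells. Values are medians of duplicate plates.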

[2] = compound: C[C@]1(c2nc3c(C(N)=O)cccc3[nH]2)CCCN1 [Veliparib] + O=C(CCCCCCC(=O)Nc1ccccc1)NO [Vorinostat] (partner 1 µM)
Method in brief: as §1

[3] = compound: COC1=CC=C(C=C1)CN2C=CC3=C2C=C(C=C3)C(=O)NO + C[C@@H](Oc1cc(-c2cnn(C3CCNCC3)c2)cnc1N)c1c(Cl)ccc(F)c1Cl [Crizotinib] (partner 1 µM)
Method in brief: as §1

[4] = compound: COC1=CC=C(C=C1)CN2C=CC3=C2C=C(C=C3)C(=O)NO + CC(=O)c1c(C)c2cnc(Nc3ccc(N4CCNCC4)cn3)nc2n(C2CCCC2)c1=O [Palbociclib] (partner 0.5 µM)
Method in brief: as §1

Cell Line | relative viability ([1]; first compound 0.06325 µM) | relative viability ([1]; first compound 0.2 µM) | relative viability ([1]; first compound 0.6325 µM) | relative viability ([1]; first compound 2 µM) | relative viability ([2]; first compound 0.02 µM) | relative viability ([2]; first compound 0.06325 µM) | relative viability ([2]; first compound 0.2 µM) | relative viability ([2]; first compound 0.6325 µM) | relative viability ([2]; first compound 2 µM) | relative viability ([3]; first compound 0.08 µM) | relative viability ([3]; first compound 0.253 µM) | relative viability ([3]; first compound 0.8 µM) | relative viability ([3]; first compound 2.53 µM) | relative viability ([3]; first compound 8 µM) | relative viability ([4]; first compound 0.08 µM) | relative viability ([4]; first compound 0.253 µM) | relative viability ([4]; first compound 0.8 µM) | relative viability ([4]; first compound 2.53 µM) | relative viability ([4]; first compound 8 µM) | relative viability ([1]; first compound 0.02 µM)
NCI-H1650 | 0.195 | 0.204 | 0.2 | 0.182 | 0.57 | 0.471 | 0.523 | 0.627 | 0.6 | 0.902 | 0.982 | 1.05 | 0.915 | 0.693 | 0.355 | 0.341 | 0.354 | 0.426 | 0.351 | –
NCI-H1651 | 0.883 | 0.908 | 0.918 | 0.876 | 0.557 | 0.551 | 0.513 | 0.464 | 0.504 | 0.853 | 0.928 | 0.859 | 0.82 | 0.826 | 0.476 | 0.519 | 0.525 | 0.51 | 0.531 | 0.924
NCI-H1666 | 0.599 | 0.81 | 0.666 | 0.875 | 0.988 | 0.963 | 1.14 | 0.997 | 1.05 | 1.18 | 1.08 | 1.08 | 0.992 | 1.03 | 0.642 | 0.661 | 0.694 | 0.679 | 0.625 | 0.879
NCI-H1734 | 0.779 | 0.904 | 0.827 | 1.01 | – | 0.772 | 0.796 | 0.785 | 0.788 | – | 0.678 | 0.683 | 0.6 | 0.652 | – | 0.367 | 0.387 | 0.341 | 0.34 | 0.911
NCI-H1755 | 0.892 | 0.924 | 0.954 | 0.868 | 0.758 | 0.774 | 0.725 | 0.723 | 0.714 | 0.789 | 0.852 | 0.858 | 0.928 | 0.879 | 0.464 | 0.48 | 0.5 | 0.448 | 0.423 | 0.888
NCI-H1915 | 1.02 | 0.842 | 0.915 | 0.755 | 0.499 | 0.465 | 0.396 | 0.388 | 0.426 | 0.777 | 0.892 | 0.935 | 0.905 | 0.857 | 0.506 | 0.545 | 0.518 | 0.505 | 0.559 | 0.939
NCI-H1975 | 0.465 | 0.429 | 0.412 | 0.424 | 0.771 | 0.688 | 0.698 | 0.639 | 0.659 | 0.915 | 1.04 | 0.955 | 0.948 | 0.871 | 0.347 | 0.627 | 0.604 | 0.665 | 0.537 | 0.394
NCI-H1993 | 1.31 | 1.13 | 1.03 | 1.06 | – | 0.775 | 0.966 | 0.804 | 0.688 | 0.698 | 0.919 | 0.803 | 0.901 | 0.881 | 0.586 | 1.12 | 0.749 | 0.714 | 0.593 | 0.994
NCI-H2009 | 0.869 | 0.808 | 0.919 | 1.15 | 0.771 | 0.65 | 0.709 | 0.708 | 0.795 | 1.02 | 0.993 | 0.995 | 0.967 | 1.06 | 0.211 | 0.215 | 0.243 | 0.226 | 0.162 | 0.299
NCI-H2023 | 0.913 | 0.937 | 0.965 | 0.924 | – | 0.536 | 0.581 | 0.472 | 0.48 | 0.625 | 0.586 | 0.728 | 0.652 | 0.59 | 0.36 | 0.355 | 0.433 | 0.359 | 0.365 | 0.505
NCI-H2085 | 0.915 | 0.898 | 1.07 | 0.862 | 0.601 | 0.778 | 0.753 | 0.763 | 0.756 | 0.804 | 0.944 | 0.853 | 0.928 | 0.926 | 0.492 | 0.452 | 0.495 | 0.464 | 0.538 | 0.655
NCI-H2087 | 0.819 | 0.81 | 0.709 | 0.838 | 0.504 | 0.747 | 0.875 | 0.645 | 0.726 | 0.819 | 0.842 | 0.993 | 0.913 | 0.767 | 0.261 | 0.226 | 0.259 | 0.28 | 0.164 | 0.563
NCI-H2126 | 1.07 | 1.18 | 1.14 | 1.06 | 0.811 | 0.777 | 0.893 | 0.785 | 0.803 | 1.02 | 1.08 | 1.04 | 1.03 | 1.06 | 0.34 | 0.339 | 0.368 | 0.361 | 0.376 | 1.03
NCI-H2228 | 0.844 | 1 | 0.843 | 0.999 | 0.585 | 0.734 | 0.585 | 0.455 | 0.469 | 0.45 | 0.549 | 0.535 | 0.492 | 0.423 | 0.544 | 0.825 | 0.904 | 0.685 | 0.573 | 0.924
NCI-H2347 | 0.687 | 1.09 | 1.21 | 0.959 | 0.716 | 0.545 | 0.561 | 0.616 | 0.637 | 0.666 | 0.7 | 0.856 | 0.672 | 0.655 | 0.422 | 0.445 | 0.472 | 0.441 | 0.428 | 1.13
NCI-H2405 | 0.858 | 0.978 | 0.988 | 0.93 | 0.812 | – | 1.01 | 1.12 | 1.09 | 0.649 | 0.865 | 0.87 | 0.925 | 0.819 | 0.476 | – | 0.55 | 0.513 | 0.481 | 0.96
NCI-H3122 | 0.99 | 0.968 | 0.998 | 0.938 | 0.906 | 1.05 | 0.972 | 0.929 | 1.07 | 0.266 | 0.275 | 0.292 | 0.317 | 0.284 | 0.196 | 0.173 | 0.204 | 0.167 | 0.194 | 1.01
PC-3 [JPC-3] | 0.789 | 0.85 | 0.815 | 0.785 | 0.68 | – | 1.02 | 1.03 | 0.922 | 0.969 | 1.02 | 1.02 | 1.05 | 0.965 | 0.562 | – | 0.559 | 0.55 | 0.535 | 0.821
PC-14 | 0.807 | 0.795 | 0.714 | 0.757 | – | 0.622 | 0.701 | 0.639 | 0.64 | 0.675 | 0.898 | 0.908 | 0.924 | 0.809 | 0.533 | 0.599 | 0.567 | 0.509 | 0.535 | 0.865
RERF-LC-KJ | 0.928 | 1.15 | 1.02 | 1.05 | 0.51 | 0.61 | 0.679 | 0.665 | 0.64 | 0.618 | 0.756 | 0.864 | 0.816 | 0.814 | 1.05 | 1.1 | 1.07 | 1.09 | 1.05 | 1.07
SK-LU-1 | 1.03 | 0.984 | 1.36 | 0.589 | 0.946 | 0.837 | 0.906 | 0.722 | 0.754 | 0.929 | 1.17 | 0.992 | 1.01 | 0.749 | 0.385 | 0.374 | 0.422 | 0.434 | 0.341 | 1.51
UMC-11 | 0.727 | 0.668 | 0.685 | 0.667 | 0.432 | 0.354 | 0.365 | 0.381 | 0.394 | 0.269 | 0.704 | 0.564 | 0.554 | 0.56 | – | 0.361 | 0.29 | 0.331 | 0.343 | 0.592
